Measurements: US20140107219A1, “LOCAL ANAESTHETIC” (VITA (EUROPE) LIMITED, priority 2011, published 2014)
Several values for one entry are separate records, joined by “and”; a condition that tells them apart may be missing. Equal entries are not always repeated. Where two headings read alike, the source gives them in different places.

Experiments:
[1] = target: T1, hNav1.6 sodium channels (SCN8A gene, expressed in CHO cells) (Homo sapiens, UniProt Q9UQD0); assay: Automated patch clamp (PatchXpress 7000A), cloned hNav1.6 in CHO cells, tonic and phasic; assay type: cell-based
T1 construct: expressed in transfected cells; host or cells: CHO cells
T1 sequence (Q9UQD0 whole entry): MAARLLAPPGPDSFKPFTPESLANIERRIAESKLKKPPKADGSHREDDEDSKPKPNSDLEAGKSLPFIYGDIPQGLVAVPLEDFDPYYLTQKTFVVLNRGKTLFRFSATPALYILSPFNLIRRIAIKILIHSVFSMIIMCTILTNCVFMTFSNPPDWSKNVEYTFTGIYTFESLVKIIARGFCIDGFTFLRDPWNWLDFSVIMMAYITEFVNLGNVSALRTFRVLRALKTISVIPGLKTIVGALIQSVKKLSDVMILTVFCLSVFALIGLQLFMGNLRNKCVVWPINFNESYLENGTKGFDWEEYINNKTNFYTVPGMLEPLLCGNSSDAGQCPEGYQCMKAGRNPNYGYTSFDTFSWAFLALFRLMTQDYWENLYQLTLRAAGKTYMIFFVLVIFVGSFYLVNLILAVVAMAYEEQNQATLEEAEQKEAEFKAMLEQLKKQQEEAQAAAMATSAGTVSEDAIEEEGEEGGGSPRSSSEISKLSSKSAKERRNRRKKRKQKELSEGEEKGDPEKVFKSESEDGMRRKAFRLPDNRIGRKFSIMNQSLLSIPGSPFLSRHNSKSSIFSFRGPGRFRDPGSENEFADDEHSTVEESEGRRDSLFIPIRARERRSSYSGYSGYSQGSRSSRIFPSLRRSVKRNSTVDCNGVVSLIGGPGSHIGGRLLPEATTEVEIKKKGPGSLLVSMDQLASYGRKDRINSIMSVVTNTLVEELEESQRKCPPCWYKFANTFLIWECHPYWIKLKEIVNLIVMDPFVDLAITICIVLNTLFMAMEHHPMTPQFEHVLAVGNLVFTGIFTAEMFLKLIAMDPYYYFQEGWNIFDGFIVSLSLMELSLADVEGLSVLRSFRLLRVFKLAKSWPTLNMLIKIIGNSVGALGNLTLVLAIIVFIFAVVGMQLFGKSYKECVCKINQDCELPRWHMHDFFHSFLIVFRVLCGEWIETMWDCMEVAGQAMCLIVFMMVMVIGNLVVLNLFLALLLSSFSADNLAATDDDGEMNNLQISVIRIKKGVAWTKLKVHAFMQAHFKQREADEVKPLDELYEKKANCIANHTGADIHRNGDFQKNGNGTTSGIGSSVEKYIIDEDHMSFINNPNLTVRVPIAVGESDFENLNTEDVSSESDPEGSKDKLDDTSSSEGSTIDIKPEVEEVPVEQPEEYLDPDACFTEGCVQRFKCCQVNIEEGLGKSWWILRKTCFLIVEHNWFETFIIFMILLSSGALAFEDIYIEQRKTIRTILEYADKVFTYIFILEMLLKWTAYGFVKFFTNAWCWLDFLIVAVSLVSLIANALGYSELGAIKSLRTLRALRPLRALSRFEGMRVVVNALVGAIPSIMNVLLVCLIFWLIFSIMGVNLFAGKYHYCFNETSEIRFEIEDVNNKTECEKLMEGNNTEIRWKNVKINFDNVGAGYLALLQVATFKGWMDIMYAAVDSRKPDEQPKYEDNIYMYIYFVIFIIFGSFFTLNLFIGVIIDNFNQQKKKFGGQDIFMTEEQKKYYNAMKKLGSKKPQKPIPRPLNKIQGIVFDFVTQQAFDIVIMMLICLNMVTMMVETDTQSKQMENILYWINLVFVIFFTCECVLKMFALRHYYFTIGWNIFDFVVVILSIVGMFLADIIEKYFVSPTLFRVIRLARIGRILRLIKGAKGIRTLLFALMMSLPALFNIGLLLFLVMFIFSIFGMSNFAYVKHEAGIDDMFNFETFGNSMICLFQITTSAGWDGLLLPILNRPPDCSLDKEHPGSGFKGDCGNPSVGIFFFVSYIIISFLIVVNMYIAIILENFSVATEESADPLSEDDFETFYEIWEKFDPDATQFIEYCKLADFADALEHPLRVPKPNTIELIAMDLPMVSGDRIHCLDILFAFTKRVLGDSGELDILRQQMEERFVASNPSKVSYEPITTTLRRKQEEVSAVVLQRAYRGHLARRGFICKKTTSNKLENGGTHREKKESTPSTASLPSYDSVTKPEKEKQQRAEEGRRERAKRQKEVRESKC
Experimental: In this example, the in vitro effects of 2-heptanone on the following ion channels were evaluated at room temperature using the PatchXpress 7000A (Molecular Devices), an automatic parallel patch clamp system:
(§1) 1. Cloned hNav1.2 sodium channels (SCN2A gene, expressed in CHO cells). 2. Cloned hNav1.6 sodium channels (SCN8A gene, expressed in CHO cells).
The effects of 2-heptanone were evaluated at 0.73, 1.46, 2.19, and 2.92 mg/ml with each concentration tested in two cells (n=2). The duration of exposure to each concentration of 2-heptanone was 5 minutes. Tables 2 to 5 show the individual results from each concentration followed by individual concentration-response curves. The positive controls (Table 6) confirm the sensitivity of the test systems to inhibition.
. Br. J. Pharmacol. 164, 719-730). […]

Acute LD50 = assay type: in vivo; details: from acute LD50
gastrocnemius muscle = assay: In vivo muscle CAP (mCAP, EMG integral) after intramuscular injection, gastrocnemius muscle; design: species or system rat
[2] = target: T2, hNav1.2 sodium channels (SCN2A gene, expressed in CHO cells) (Homo sapiens, UniProt Q99250); assay: Automated patch clamp (PatchXpress 7000A), cloned hNav1.2 in CHO cells, tonic and phasic; assay type: cell-based; details: for inhibition at 730 µg/mL / inhibition at 1460 µg/mL / inhibition at 2190 µg/mL / inhibition at 2920 µg/mL: CHO
T2 construct: expressed in transfected cells; host or cells: CHO cells
T2 sequence (Q99250 whole entry): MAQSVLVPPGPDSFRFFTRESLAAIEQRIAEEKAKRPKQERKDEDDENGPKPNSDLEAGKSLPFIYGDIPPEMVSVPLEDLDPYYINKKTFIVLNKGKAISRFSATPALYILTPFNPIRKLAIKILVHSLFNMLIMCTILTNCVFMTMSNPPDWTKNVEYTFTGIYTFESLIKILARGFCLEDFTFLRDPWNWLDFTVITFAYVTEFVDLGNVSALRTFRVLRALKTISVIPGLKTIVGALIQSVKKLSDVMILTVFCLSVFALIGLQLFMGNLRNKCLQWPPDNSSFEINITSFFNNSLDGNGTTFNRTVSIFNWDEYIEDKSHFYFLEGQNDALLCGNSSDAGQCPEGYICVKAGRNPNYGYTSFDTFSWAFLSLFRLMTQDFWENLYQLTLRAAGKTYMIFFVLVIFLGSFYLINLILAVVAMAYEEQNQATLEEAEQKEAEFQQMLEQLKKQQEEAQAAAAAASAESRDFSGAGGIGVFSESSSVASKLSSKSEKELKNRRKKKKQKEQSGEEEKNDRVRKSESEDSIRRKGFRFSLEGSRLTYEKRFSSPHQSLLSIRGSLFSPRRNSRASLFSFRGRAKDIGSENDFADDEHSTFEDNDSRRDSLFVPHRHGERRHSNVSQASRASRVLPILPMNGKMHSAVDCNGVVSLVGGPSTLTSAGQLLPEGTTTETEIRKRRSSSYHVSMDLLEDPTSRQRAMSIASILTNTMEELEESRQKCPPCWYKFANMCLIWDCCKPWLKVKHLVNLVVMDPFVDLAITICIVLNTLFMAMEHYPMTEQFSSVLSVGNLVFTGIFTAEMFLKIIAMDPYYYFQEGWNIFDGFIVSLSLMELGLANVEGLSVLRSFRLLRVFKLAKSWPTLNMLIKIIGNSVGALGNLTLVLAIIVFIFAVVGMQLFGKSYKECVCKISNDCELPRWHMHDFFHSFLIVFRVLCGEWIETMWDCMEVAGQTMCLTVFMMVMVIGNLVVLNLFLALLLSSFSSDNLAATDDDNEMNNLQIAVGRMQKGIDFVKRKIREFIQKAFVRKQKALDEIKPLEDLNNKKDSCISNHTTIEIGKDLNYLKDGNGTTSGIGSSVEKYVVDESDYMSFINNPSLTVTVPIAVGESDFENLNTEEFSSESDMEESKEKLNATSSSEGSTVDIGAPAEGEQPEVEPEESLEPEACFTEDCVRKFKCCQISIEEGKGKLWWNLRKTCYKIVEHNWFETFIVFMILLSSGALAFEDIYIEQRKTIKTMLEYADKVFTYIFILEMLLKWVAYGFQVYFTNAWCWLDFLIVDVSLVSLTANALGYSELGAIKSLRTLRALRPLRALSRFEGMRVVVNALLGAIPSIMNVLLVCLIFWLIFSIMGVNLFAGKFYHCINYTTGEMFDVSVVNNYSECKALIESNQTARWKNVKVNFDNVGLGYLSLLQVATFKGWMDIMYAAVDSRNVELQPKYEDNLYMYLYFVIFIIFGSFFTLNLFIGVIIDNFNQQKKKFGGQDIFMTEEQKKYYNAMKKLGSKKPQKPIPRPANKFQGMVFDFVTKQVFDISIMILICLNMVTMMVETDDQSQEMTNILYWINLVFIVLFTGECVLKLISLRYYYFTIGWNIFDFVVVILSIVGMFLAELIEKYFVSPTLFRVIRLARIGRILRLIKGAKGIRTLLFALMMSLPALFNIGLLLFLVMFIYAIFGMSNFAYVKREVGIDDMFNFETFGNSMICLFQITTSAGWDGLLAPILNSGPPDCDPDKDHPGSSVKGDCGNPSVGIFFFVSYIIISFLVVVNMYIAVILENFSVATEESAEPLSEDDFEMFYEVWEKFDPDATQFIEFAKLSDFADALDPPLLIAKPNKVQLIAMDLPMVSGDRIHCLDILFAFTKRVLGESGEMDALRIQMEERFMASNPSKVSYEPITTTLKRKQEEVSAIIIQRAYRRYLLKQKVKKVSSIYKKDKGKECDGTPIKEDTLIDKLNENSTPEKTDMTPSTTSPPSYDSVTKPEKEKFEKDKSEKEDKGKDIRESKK
Text: as §1

For `CCCCCC(C)=O` [2-heptanone], the IC50 ([1]; Example 7, n=2, read-out: Nav1.6 tonic IC50 (converted)) was 7.06 mM and 7.07 mM, the “hNav1.6 IC50, phasic” value ([1]; Example 18, mean ± SEM) was 820 ± 30 µg/mL and the IC50 ([1]; Example 18, mean ± SEM, read-out: hNav1.6 IC50, tonic (converted)) was 11.7 mM. For the same compound, the “Hill coefficient, Nav1.6 phasic” value ([1]; FIG. 41, mean±SE) was 1.10±0.06, the “Hill coefficient, Nav1.6 tonic” value ([1]; FIG. 41, mean±SE) was 1.35±0.12 and the “times less toxic than lidocaine” value (Acute LD50) was 5.6 times. For the same compound, the “recovery of mCAP after 3 h” value (gastrocnemius muscle; 7.2 mg/kg intramuscular) was 65.4±7.78% and 61%, the “IT50 of the integral of mCAPs” value (gastrocnemius muscle; 7.2 mg/kg intramuscular, in Tween 80 + 0.9% NaCl) was 25.78 s and the “IT50 of the integral of mCAPs” value (gastrocnemius muscle; 10.8 mg/kg intramuscular) was 11.16 s. For the same compound, the “recovery of mCAP, % of initial values after 3 h” value (gastrocnemius muscle; 10.8 mg/kg intramuscular) was “no recovery”, the “times more effective than lidocaine” value (gastrocnemius muscle; similar IT50 at 7.2 mg/kg vs 10.8 mg/kg lidocaine) was 1.5 times and the “times less active than lidocaine, hNav1.2 phasic” value [2] was 12.8 times. The “times less active than lidocaine, hNav1.2 tonic” value [2] was 7 times, the “Individual Data Points (% Inhibition), Nav1.2 phasic” value ([2]; 0.73 mg/ml, single cells) was 44.6% and the “Individual Data Points (% Inhibition), Nav1.2 tonic” value ([2]; 0.73 mg/ml, single cells) was 27. %. The “Individual Data Points (% Inhibition), Nav1.2 phasic” value ([2]; 1.46 mg/ml, single cells) was 64.7%, the “Individual Data Points (% Inhibition), Nav1.2 tonic” value ([2]; 1.46 mg/ml, single cells) was 45.8% and the “Individual Data Points (% Inhibition), Nav1.2 phasic” value ([2]; 2.19 mg/ml, single cells) was 92.4%. For the same compound, the “Individual Data Points (% Inhibition), Nav1.2 tonic” value ([2]; 2.19 mg/ml, single cells) was 73. %, the “Individual Data Points (% Inhibition), Nav1.2 phasic” value ([2]; 2.92 mg/ml, single cells) was 99.8% and the “Individual Data Points (% Inhibition), Nav1.2 tonic” value ([2]; 2.92 mg/ml, single cells) was 89. %. For the same compound, the inhibition at 730 µg/mL ([2]; 0.73 mg/ml, single cells, read-out: Individual Data Points (% Inhibition), Nav1.2 phasic) was 44.3%, the inhibition at 730 µg/mL ([2]; 0.73 mg/ml, single cells, read-out: Individual Data Points (% Inhibition), Nav1.2 tonic) was 31.5% and the inhibition at 730 µg/mL ([2]; 0.73 mg/ml, read-out: Mean % Nav1.2 Phasic Inhibition) was 44.4%. The inhibition at 730 µg/mL ([2]; 0.73 mg/ml, read-out: Mean % Nav1.2 Tonic Inhibition) was 29.7%, the inhibition at 1460 µg/mL ([2]; 1.46 mg/ml, single cells, read-out: Individual Data Points (% Inhibition), Nav1.2 phasic) was 67.9% and the inhibition at 1460 µg/mL ([2]; 1.46 mg/ml, single cells, read-out: Individual Data Points (% Inhibition), Nav1.2 tonic) was 49.3%. The inhibition at 1460 µg/mL ([2]; 1.46 mg/ml, read-out: Mean % Nav1.2 Phasic Inhibition) was 66.3%, the inhibition at 1460 µg/mL ([2]; 1.46 mg/ml, read-out: Mean % Nav1.2 Tonic Inhibition) was 47.6% and the inhibition at 2190 µg/mL ([2]; 2.19 mg/ml, single cells, read-out: Individual Data Points (% Inhibition), Nav1.2 phasic) was 87.6%. The inhibition at 2190 µg/mL ([2]; 2.19 mg/ml, single cells, read-out: Individual Data Points (% Inhibition), Nav1.2 tonic) was 56.7%, the inhibition at 2190 µg/mL ([2]; 2.19 mg/ml, read-out: Mean % Nav1.2 Phasic Inhibition) was 90% and the inhibition at 2190 µg/mL ([2]; 2.19 mg/ml, read-out: Mean % Nav1.2 Tonic Inhibition) was 65.1%. The inhibition at 2920 µg/mL ([2]; 2.92 mg/ml, single cells, read-out: Individual Data Points (% Inhibition), Nav1.2 phasic) was 98.2%, the inhibition at 2920 µg/mL ([2]; 2.92 mg/ml, single cells, read-out: Individual Data Points (% Inhibition), Nav1.2 tonic) was 78.7% and the inhibition at 2920 µg/mL ([2]; 2.92 mg/ml, read-out: Mean % Nav1.2 Phasic Inhibition) was 99%. The inhibition at 2920 µg/mL ([2]; 2.92 mg/ml, read-out: Mean % Nav1.2 Tonic Inhibition) was 83.9%, the IC50 ([2]; Example 7, n=2, read-out: Nav1.2 phasic IC50 (converted)) was 7.57 mM and 7.58 mM and the IC50 ([2]; Example 7, n=2, read-out: Nav1.2 tonic IC50 (converted)) was 12.1 mM. For the same compound, the IC50 ([2]; Example 18, mean ± SEM, read-out: hNav1.2 IC50, phasic (converted)) was 11.2 mM, the IC50 ([2]; Example 18, mean ± SEM, read-out: hNav1.2 IC50, tonic (converted)) was 16.6 mM and the “Hill coefficient, Nav1.2 phasic” value ([2]; FIG. 41, mean±SE) was 1.24±0.17. The “Hill coefficient, Nav1.2 tonic” value ([2]; FIG. 41, mean±SE) was 1.44±0.02.
